Values of other authors, collected in patent US7705146B2, “Hepatitis C inhibitor peptide analogs” (Boehringer Ingelheim International GmbH, priority 2004, dated 2010).

System: hepatitis C virus
Details: two day clinical trial, patients infected with the hepatitis C virus

**Q.** For COc1ccc2c(O[C@@H]3C[C@H]4C(=O)N[C@]5(C(=O)O)C[C@H]5/C=C\CCCCC[C@H](NC(=O)OC5CCCC5)C(=O)N4C3)cc(-c3csc(NC(C)C)n3)nc2c1 [BILN 2061], which “reduction of viral loads in patients” value is on record?
**A.** Its value is “effective in rapidly reducing viral loads”.
